Results published in ChEMBL document CHEMBL1151115, “Brianthein V, a New Cytotoxic and Antiviral Diterpene Isolated from Briareum asbestinum” (J Nat Prod, 1988).
The source made the active and inactive calls. The rule behind the calls is not given here.

Legend:
[1] = test system: Human alphaherpesvirus 1; experiment: Antiviral activity against herpes simplex virus 1 at 80 ug/ml; type: functional, organism-based
[2] = test system: P388; experiment: Cytotoxicity against mouse P388 cells at 10 ug/ml; type: functional, cell-based
[3] = test system: Murine hepatitis virus; experiment: Antiviral activity against mouse coronavirus at 80 ug/ml; type: functional, organism-based
[4] = test system: P388; experiment: Cytotoxicity against mouse P388 cells at 0.1 ug; type: functional, cell-based
[5] = test system: Murine hepatitis virus; experiment: Antiviral activity against mouse coronavirus at 10 ug; type: functional, organism-based
[6] = test system: Murine hepatitis virus; experiment: Antiviral activity against mouse coronavirus at 400 ug/ml; type: functional, organism-based
[7] = test system: Human alphaherpesvirus 1; experiment: Antiviral activity against herpes simplex virus 1 at 20 ug; type: functional, organism-based
[8] = test system: Murine hepatitis virus; experiment: Antiviral activity against mouse coronavirus at 50 ug/ml; type: functional, organism-based
[9] = test system: P388; experiment: Cytotoxicity against mouse P388 cells at 13 ug/ml; type: functional, cell-based

## C=C1/C=C\[C@H](OC(C)=O)[C@]2(C)[C@H]([C@@H](C)[C@H](OC(C)=O)[C@@H]3O[C@@H]32)[C@H](OC(C)=O)[C@]2(O)[C@@H](C)C(=O)O[C@H]2[C@H]1Cl
[1]
  Activity: Active
[2]
  Activity: Active
[3]
  Activity: Active

## O=c1[nH]cc(F)c(=O)[nH]1
[4]
  Activity: Active

## NC(=O)c1ncn([C@@H]2O[C@H](CO)[C@@H](O)[C@H]2O)n1
[5]
  Activity: Active

## C=C1/C=C\[C@H](OC(=O)CCC)[C@]2(C)[C@H]([C@@H](C)[C@H](OC(C)=O)[C@@H]3O[C@@H]32)[C@H](OC(C)=O)[C@]2(O)[C@@H](C)C(=O)O[C@H]2[C@H]1Cl
[6]
  Activity: Active

## Nc1ncnc2c1ncn2[C@@H]1O[C@H](CO)[C@@H](O)[C@@H]1O
[7]
  Activity: Active

## C=C1/C=C\[C@H](OC(=O)CCC)[C@]2(C)[C@H]([C@@H](C)[C@H](OC(=O)CCC)[C@@H]3O[C@@H]32)[C@H](OC(C)=O)[C@]2(O)[C@@H](C)C(=O)O[C@H]2[C@H]1Cl
[8]
  Activity: Active
[9]
  Activity: Active
